Measurements: BindingDB's records for doi:10.1016/j.bmc.2007.01.010 (Abbott Laboratories, 2007)

Molecular target: T1, RAC-alpha serine/threonine-protein kinase [139-480,S378A,S381A,T450D,S473D] (Homo sapiens, UniProt P31749, S378A/S381A/S473D/T450D)
T1 construct: 139-480
Experiment: Akt Kinase Assay
Conditions: pH 7.5; 22 °C
Procedure: The kinase assay uses His-Akt1 and a biotinylated peptide as substrate. The biotinylated peptides were immobilized on streptavidin-coated FLASH plates. After reaction, the 33P-phosphopeptide captured on the FLASH plates was measured with a TopCount Packard Instruments […] (Packard Instruments, Boston, MA).

T1 sequence (P31749 139-480 S378A/S381A/T450D/S473D): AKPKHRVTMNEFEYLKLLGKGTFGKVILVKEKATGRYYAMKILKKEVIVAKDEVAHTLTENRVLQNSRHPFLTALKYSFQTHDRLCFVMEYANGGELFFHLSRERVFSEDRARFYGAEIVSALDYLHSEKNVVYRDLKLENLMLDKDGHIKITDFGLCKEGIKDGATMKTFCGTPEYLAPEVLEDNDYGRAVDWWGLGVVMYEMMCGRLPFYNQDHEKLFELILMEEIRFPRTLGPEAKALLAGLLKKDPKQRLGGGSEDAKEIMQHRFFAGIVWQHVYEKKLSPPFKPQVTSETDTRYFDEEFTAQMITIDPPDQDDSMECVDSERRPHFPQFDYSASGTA

| Structure (SMILES) | IC50 |
| --- | --- |
| N[C@H](COc1cncc(-c2ccc3[nH]ncc3c2)c1)Cc1c[nH]c2ccccc12 [5-{5-[(2S)-2-amino-3-(1H-indol-3-yl)propoxy]pyridin-3-yl}-1H-indazole] | 1.5 nM |
| N[C@H](COc1cncc(-c2ccc3[nH]nc(C(F)(F)F)c3c2)c1)Cc1c[nH]c2ccccc12 [5-{5-[(2S)-2-amino-3-(1H-indol-3-yl)propoxy]pyridin-3-yl}-3-(trifluoromethyl)-1H-indazole] | 1.8 nM |
| N[C@H](COc1cncc(-c2cc3cn[nH]c3cc2[N+](=O)[O-])c1)Cc1c[nH]c2ccccc12 [5-{5-[(2S)-2-amino-3-(1H-indol-3-yl)propoxy]pyridin-3-yl}-6-nitro-1H-indazole] | 953 nM |
| N[C@H](COc1cncc(-c2ccc3[nH]nc(Cl)c3c2)c1)Cc1c[nH]c2ccccc12 [5-{5-[(2S)-2-amino-3-(1H-indol-3-yl)propoxy]pyridin-3-yl}-3-chloro-1H-indazole] | 1 nM |
| Cc1n[nH]c2cnc(-c3cncc(OC[C@@H](N)Cc4c[nH]c5ccccc45)c3)cc12 [pyrazolopyridine analog, 9g] | 0.34 nM |
| Nc1cc2[nH]ncc2cc1-c1cncc(OC[C@@H](N)Cc2c[nH]c3ccccc23)c1 [5-{5-[(2S)-2-amino-3-(1H-indol-3-yl)propoxy]pyridin-3-yl}-1H-indazol-6-amine] | 51 nM |
| N[C@H](COc1cncc(-c2cc3c(-c4ccco4)n[nH]c3cn2)c1)Cc1ccccc1 [3-[(2S)-2-amino-3-phenylpropoxy]-5-[3-(furan-2-yl)-1H-pyrazolo[3,4-c]pyridin-5-yl]pyridine] | 6.1 nM |
| N[C@H](COc1cncc(-c2cc3cn[nH]c3cn2)c1)Cc1c[nH]c2ccccc12 [3-[(2S)-2-amino-3-[(5-{1H-pyrazolo[3,4-c]pyridin-5-yl}pyridin-3-yl)oxy]propyl]-1H-indole] | 0.6 nM |
| N[C@H](COc1cncc(-c2cc3c(-c4ccccc4)n[nH]c3cn2)c1)Cc1ccccc1 [3-[(2S)-2-amino-3-phenylpropoxy]-5-{3-phenyl-1H-pyrazolo[3,4-c]pyridin-5-yl}pyridine] | 8.3 nM |
| Nc1cc2[nH]nc(Cl)c2cc1-c1cncc(OC[C@@H](N)Cc2c[nH]c3ccccc23)c1 [5-{5-[(2S)-2-amino-3-(1H-indol-3-yl)propoxy]pyridin-3-yl}-3-chloro-1H-indazol-6-amine] | 7.1 nM |

Continued, values first:

| IC50 | Structure (SMILES) |
| --- | --- |
| 223 nM | N[C@H](COc1cncc(-c2cc3cn[nH]c3cn2)c1)Cc1ccccc1 [3-[(2S)-2-amino-3-phenylpropoxy]-5-{1H-pyrazolo[3,4-c]pyridin-5-yl}pyridine] |
| 25 nM | Cc1n[nH]c2cnc(-c3cncc(OC[C@@H](N)Cc4ccccc4)c3)cc12 [3-[(2S)-2-amino-3-phenylpropoxy]-5-{3-methyl-1H-pyrazolo[3,4-c]pyridin-5-yl}pyridine] |
| 228 nM | Cn1cccc1-c1n[nH]c2cnc(-c3cncc(OC[C@@H](N)Cc4ccccc4)c3)cc12 [3-[(2S)-2-amino-3-phenylpropoxy]-5-[3-(1-methyl-1H-pyrrol-2-yl)-1H-pyrazolo[3,4-c]pyridin-5-yl]pyridine] |
| 59 nM | N[C@H](COc1cncc(-c2cc3c(Cl)n[nH]c3cn2)c1)Cc1ccccc1 [3-[(2S)-2-amino-3-phenylpropoxy]-5-{3-chloro-1H-pyrazolo[3,4-c]pyridin-5-yl}pyridine] |
| 13 nM | C=Cc1n[nH]c2cnc(-c3cncc(OC[C@@H](N)Cc4ccccc4)c3)cc12 [3-[(2S)-2-amino-3-phenylpropoxy]-5-{3-ethenyl-1H-pyrazolo[3,4-c]pyridin-5-yl}pyridine] |
| 104 nM | Cc1n[nH]c2c[n+]([O-])c(-c3cncc(OC[C@@H](N)Cc4ccccc4)c3)cc12 [5-{5-[(2S)-2-amino-3-phenylpropoxy]pyridin-3-yl}-3-methyl-6-oxido-1H-pyrazolo[3,4-c]pyridin-6-ium] |
